Test results: patent publication US20260091086A1, “POLYPEPTIDE COMBINATIONS AND USES THEREOF” (MEDIMMUNE LIMITED, priority 2024, published 2026)
Numbered stars: 1 amine (or outer) side, 2 acyl side, 3 side chain; on linkers, the order of the positions; unused ones are H or OH. Bridge positions count the residues as written; N and C are the ends. Square brackets hold non-standard residues; d marks the D form. Side chains are listed from the residue outwards. Ends that are not written are not given here. * marks the point of attachment. C18 diacid = O=C(O)CCCCCCCCCCCCCCCCC(=O)*; γGlu = O=C(O)[C@H](CCC(=O)[*:2])N[*:1]; αMeF = C[C@](N)(Cc1ccccc1)C(=O)O

What was measured:
Type in all cases: in vivo, rat
[1] = test system: diet-induced obese (DIO) Sprague-Dawley rats; assay: Example 2: 28-day combination study in DIO rats (body weight, EchoMRI body composition); details: LAA 10 nmol/kg, GLP-1/GCG 5.4 nmol/kg or both
Method: Study Design: Male diet-induced obese (DIO) Sprague-Dawley rats were fed a high fat diet (45% fat, D12451; Research Diets) for 34 weeks prior to study start. […] Research Diets). […] Average body weight for all DIO rats at start of study was 722.4+10.1 grams. Body composition was measured by EchoMRI on day-7 and day 26. In this experiment, the LAA was that of SEQ ID NO: 11, and the GLP-1/GCG dual-agonist was cotadutide. Data reported as mean±standard error of the mean (SEM); data analysis performed using GraphPad Prism-statistical analysis performed using One-way ANOVA with Tukey ad hoc analysis.

[2] = test system: DIO rats; assay: Example 7: 28-day LAA and GLP/GIP dual agonist study
Method: Study Design: Male rats were fed a high-fat diet (45% kcal fat-D12451; Research Diets) or chow control matched diet (10% kcal fat-D12450K; […] Control rats were dosed SC with Vehicle. Body weight was monitored daily through-out study and body composition measured by EchoMRI at baseline (week-1) and end of study (week 4). […]

[3] = test system: High-fat diet (DIO) fed rats; assay: Example 9: 4-week LAA or DACRA monotherapy in DIO rats; details: for BW reduction compared to vehicle / reduction of cumulative food intake: 4 weeks
Text: Study 1 Design: High-fat diet (DIO) fed rats were used to profile LAA or DACRA monotherapy to evaluate food intake, body weight-lowering and body composition effects in a 4-week study. In this experiment, the LAA was that of SEQ ID NO: 11 and the DACRA was cagrilintide.

K(γE-γE-C18diacid)[CNTATC]ATQRLANFLRHSSNN(αMePhe)GPILPPTEVGSNTY-amide (K([γGlu-γGlu-C18 diacid])CNTATCATQRLANFLRHSSNN[αMeF]GPILPPTEVGSNTY-NH2; disulfide 2-7) [LAA]
body weight loss vs Vehicle ([1]; SC QD, FIG. 1A): lost significantly more body weight than Vehicle treated rats | fat mass change (EchoMRI) ([1]; day 26): lost a significant amount of fat mass compared to Vehicle treatment | lean mass change (EchoMRI) ([1]; day 26): little effect on lean mass | body weight change ([2]; day 28, mono-treatment 10 nmol/kg SC QD): −5.6% | change in fat mass (g) ([2]; end of study (week 4), EchoMRI, FIG. 6C): significant decrease in fat mass | change in lean mass (g) ([2]; end of study, EchoMRI, mono-treatment, FIG. 6D): no effect on lean mass | BW reduction compared to vehicle ([3]; 2.5 nmol/kg): −5.2±0.6% | reduction of cumulative food intake ([3]; 2.5 nmol/kg): −14.3±1.2 % of vehicle | BW reduction compared to vehicle ([3]; 10 nmol/kg): −9.7±0.7% | reduction of cumulative food intake ([3]; 10 nmol/kg): −20.9±0.7 % of vehicle | fat-mass loss ([3]; end of study, 10 nmol/kg): -28.0 ± 2.3 g | proportion of body weight loss that was fat-mass specific ([3]; end of study, 10 nmol/kg, FIG. 8C): 100% | lean mass ([3]; end of study, FIG. 8B): Lean mass was preserved in the LAA groups
